According to patent US12385839B2, “Use of protein in predicting drug properties” (priority 2021, dated 2025):

Legend:
[1] = target: T1, human serum albumin (HSA) (Homo sapiens, UniProt P02768); test: Fluorescence emission spectrum (quenching) of HSA with carbamate pesticides; format: binding; conditions: for Ksv (37°) / ΔG(37°) / Binding distance/r / Number of binding sites/n: modelling table; for Kq / Ksv / n (number of binding sites) / Kd: pH 7.4; for R (binding distance): Förster energy transfer; for fluorescence of HSA quenched by pesticide: titration of pesticide; for Kd: Ka (binding constant); for ΔH^0 / ΔS^0: Van't Hoff, 296-310 K
T1 sequence (P02768 25-609): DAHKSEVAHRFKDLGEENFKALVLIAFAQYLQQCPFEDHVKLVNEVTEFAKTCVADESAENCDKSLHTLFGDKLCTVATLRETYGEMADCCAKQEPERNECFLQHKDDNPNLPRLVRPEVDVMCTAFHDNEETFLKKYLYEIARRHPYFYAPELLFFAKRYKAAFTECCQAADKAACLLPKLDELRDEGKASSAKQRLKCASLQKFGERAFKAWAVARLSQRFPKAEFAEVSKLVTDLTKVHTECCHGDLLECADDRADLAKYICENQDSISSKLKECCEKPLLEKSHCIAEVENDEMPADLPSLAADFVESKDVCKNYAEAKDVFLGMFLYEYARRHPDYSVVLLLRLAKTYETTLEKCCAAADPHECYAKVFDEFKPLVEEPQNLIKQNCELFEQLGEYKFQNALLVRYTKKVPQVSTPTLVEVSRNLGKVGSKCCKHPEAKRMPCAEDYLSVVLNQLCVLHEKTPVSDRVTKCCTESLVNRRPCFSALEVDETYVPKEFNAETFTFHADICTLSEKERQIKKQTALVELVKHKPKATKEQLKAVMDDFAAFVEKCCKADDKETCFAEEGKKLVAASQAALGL
Procedure, shortened: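 Fluorescence quenching of HSA by carbamate pesticides was measured. HSA was held at 5×10^−7 M and pesticide was titrated from (0-105)×10^−7 M. Samples were preheated for 3 minutes, excited at 280 nm with 15 nm slits, and emission was recorded from 300-500 nm. Inner-filter effects were corrected. Binding site number n came from log[(F0−F)/F]=log Ka+nlog[Q].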

[2] = target: T1, human serum albumin (HSA); test: Circular dichroism spectrum, secondary structure (α-helix content) of HSA; conditions: HSA 2×10^−6 M
Procedure, shortened: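 CD spectra of HSA held at 2×10^−6 M with pesticide at (0-20)×10^−6 M, 1 mm path, after 2–5 min preheating. α-Helix content derived from mean residue ellipticity at 208 nm (585 residues).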

[3] = cited from earlier work; for LD50: modelling table; for Toxicity: toxicity grade by LD50, trailing figure = number of pesticides in group

| SMILES | Ksv (37°) [1] | ΔG(37°) [1] | ΔG^0 ([1]; 296 K) | Kq ([1]; 296 K) | Ksv ([1]; 296 K) | n (number of binding sites) ([1]; 296 K) | ΔG^0 ([1]; 303 K) | Kq ([1]; 303 K) | Ksv ([1]; 303 K) | n (number of binding sites) ([1]; 303 K) | ΔG^0 ([1]; 310 K) | R (binding distance) ([1]; 310 K) | Kq ([1]; 310 K) | Ksv ([1]; 310 K) | n (number of binding sites) ([1]; 310 K) | fluorescence of HSA quenched by pesticide ([1]; 310 K) | Kd ([1]; 296 K) | Kd ([1]; 303 K) | Kd ([1]; 310 K) | ΔH^0 [1] | also measured |
| --- | --- | --- | --- | --- | --- | --- | --- | --- | --- | --- | --- | --- | --- | --- | --- | --- | --- | --- | --- | --- | --- |
| CNC(=O)Oc1ccccc1C(C)C [Isoprocarb, isoprocarb] | 30154.52708 | −18.11 | -15.260 kJ/mol | 2.175 ± 0.070 10^12 M^−1s^−1 | 2.175 ± 0.070 10^4 M^−1 | 0.669 ± 0.004 | -16.683 kJ/mol | 2.758 ± 0.048 10^12 M^−1s^−1 | 2.758 ± 0.048 10^4 M^−1 | 0.689 ± 0.004 | -18.106 kJ/mol | 2.338 nm | 3.015 ± 0.043 10^12 M^−1s^−1 | 3.015 ± 0.043 10^4 M^−1 | 0.712 ± 0.009 | quenched | 2050 µM | 1300 µM | 900 µM | 44.910 kJ/mol | ΔS^0 [1]: 203.281 J · mol^−1 · K^−1; Binding distance/r [1]: 2.338; Number of binding sites/n [1]: 0.7116; α-helix contents ([2]; 5:1 (Pesticide:HSA)): 50.878%; α-helix contents ([2]; 10:1 (Pesticide:HSA)): 49.242%; LD50 [3]: 450 mg/kg; Toxicity [3]: Moderately |
| CNC(=O)Oc1ccccc1OC(C)C [Propoxur, propoxur] | 50525.98687 | −20.63 | -17.536 kJ/mol | 3.425 ± 0.132 10^12 M^−1s^−1 | 3.425 ± 0.132 10^4 M^−1 | 0.706 ± 0.014 | -19.082 kJ/mol | 4.353 ± 0.121 10^12 M^−1s^−1 | 4.353 ± 0.121 10^4 M^−1 | 0.729 ± 0.013 | -20.627 kJ/mol | 3.138 nm | 5.053 ± 0.120 10^12 M^−1s^−1 | 5.053 ± 0.120 10^4 M^−1 | 0.757 ± 0.011 | quenched | 794 µM | 527 µM | 330 µM | 47.825 kJ/mol | ΔS^0 [1]: 220.816 J · mol^−1 · K^−1; Binding distance/r [1]: 3.138; Number of binding sites/n [1]: 0.7565; α-helix contents ([2]; 5:1 (Pesticide:HSA)): 50.121%; α-helix contents ([2]; 10:1 (Pesticide:HSA)): 49.341%; LD50 [3]: 41 mg/kg; Toxicity [3]: Highly |
